Values quoted from earlier work, collected in patent US8680084B2, “Oral contraceptives to prevent pregnancy and diminish premenstrual symptomatology” (Teva Women's Health, Inc., priority 2001, dated 2014).

Assays:
[1] = for amount roughly equivalent to 1 mg of levonorgestrel: progestin potency relative to levonorgestrel; for amount roughly equivalent to 30 μg of ethinyl estradiol: estrogen potency relative to ethinyl estradiol
PMDD = conditions: daily dose of either 20 mg or 60 mg; randomized, placebo-controlled trials

Row | SMILES | amount roughly equivalent to 1 mg of levonorgestrel [1] | further results
1 | C#C[C@]1(O)CC[C@H]2[C@@H]3CCC4=CC(=O)CC[C@@H]4[C@H]3C(=C)C[C@@]21CC [3-ketodesogestrel] | ~1 mg | 
2 | C[C@]12CC[C@@H]3c4ccc(O)cc4CC[C@H]3[C@@H]1CC[C@@H]2O [17β-estradiol] |  | amount roughly equivalent to 30 μg of ethinyl estradiol [1]: ~2 mg
3 | CNCCC(Oc1ccc(C(F)(F)F)cc1)c1ccccc1 (stereo not shown) [Fluoxetine, fluoxetine] |  | reducing symptoms of PMDD versus placebo (PMDD): superior to placebo
4 | C#C[C@]1(O)CC[C@H]2[C@@H]3CCC4=CCCC[C@@H]4[C@H]3C(=C)C[C@@]21CC [desogestrel] | ~1 mg | 
5 | C#C[C@]1(O)C=C[C@H]2[C@@H]3CCC4=CC(=O)CC[C@@H]4[C@H]3CC[C@@]21CC [gestodene] | about 0.7 mg | 
6 | C#C[C@]1(O)CC[C@H]2[C@@H]3CCc4cc(OC)ccc4[C@H]3CC[C@@]21C [mestranol] |  | amount roughly equivalent to 30 μg of ethinyl estradiol [1]: ~0.06 mg
7 | C#C[C@]1(OC(C)=O)CC[C@H]2[C@@H]3CCC4=CC(=O)CC[C@@H]4[C@H]3CC[C@@]21C [norethindrone acetate] | about 3.5 mg | 
